# Laboratory results as given in US10759792B2, “CaMKII inhibitors and uses thereof” (The Johns Hopkins University, priority 2014, dated 2020).
# Target: CaMKIIδ (Homo sapiens (Human), UniProt Q13557)
# Experiment: In vitro CaMKIIδ activity assay (coupled assay measuring ADP released, peptide substrate AC3)
# Assay type: biochemical
# Conditions: full length C-terminal His/Gln tagged CaMKIIδ construct, 16 nM enzyme, 25° C., duplicate
# Procedure: An exemplary procedure for the in vitro CaMKIIδ inhibition assay, which can be used to determine the inhibitory action of compounds of the invention toward CaMKII, follows. The procedure is taken from Chao L H, et al., (2010) Nat Struct Mol Biol. 17(3): 264-272, which is incorporated herein by reference in its entirety.
# The inhibition of CaMKII activity was evaluated using a coupled assay measuring ADP released following ATP hydrolysis and phosphor-transfer to the peptide substrate AC3 (KKALHRQETVDAL; SEQ ID NO: 1) (1). A full length, C-terminal His/Gln tagged CaMKIIδ construct was used (sequence in Table 3 below).
# Compounds were added in 5 uL volume to wells in UV transparent 96-well plates (½ area well size). The final compound concentrations tested ranged from 0.5 nM to 10 uM). Assays were performed in duplicate. CaMKIIδ is added to at a final concentration of 16 nM to a mixture containing 100 mM Tris (pH 7.5), 150 mM KCl, 0.27 mM EGTA, 1.3 mM PEP, 0.2 mg/ml AC3, 6.9% (v/v) PK/LDH mixture (Sigma P0294), 0.38 mM NADH and kept on ice. 72 uL of the enzyme mixture was added to the wells containing compounds and the plate was shaken briefly and kept on ice. The assay was initiated by adding 23 uL of a mixture containing 100 mM Tris (pH 7.5), 150 mM KCl, 1.7 mM CaCl2, 48 mM MgCl2, 0.35 mM ATP and 6.7 ug/mL calmodulin. The rate of ADP released was measured as the rate of absorbance decrease at […] at 25° C. and plotted against the log of the compound concentration (FIG. 1). IC50 data were fitted using GraphPad Prism software.
row,IC50 [nM],SMILES
1,≥ 1000,Clc1ccncc1-c1ccnc2[nH]c3ccccc3c12 [Compound 8p]
2,250 to 1000,c1ccc2c(c1)[nH]c1nccc(-c3cc[nH]c3)c12 [Compound 8q]
3,≥ 1000,Clc1cnccc1-c1ccnc2[nH]c3ccccc3c12 [Compound 8r]
4,250 to 1000,c1ccc2c(c1)[nH]c1nccc(-c3cncc(N4CCNCC4)c3)c12 [Compound 9a]
5,≥ 1000,c1ccc2c(c1)[nH]c1nccc(-n3cc(C4CCNCC4)nn3)c12 [Compound 9e]
6,≥ 1000,C(=C\c1ccnc2[nH]c3ccccc3c12)/CN1CCNCC1 [Compound 9h]
7,≤ 50,c1cc(-c2ccnc3[nH]c4ccccc4c23)nc(N2CCNCC2)c1 [Compound 9j]
8,≥ 1000,c1ccc2c(c1)[nH]c1nccc(-c3cnc(N4CCNCC4)s3)c12 [Compound 9k]
9,≥ 1000,Cc1nn(C2CCNCC2)cc1-c1ccnc2[nH]c3ccccc3c12 [Compound 9l]
10,≥ 1000,c1ccc2c(c1)[nH]c1nccc(-c3cnn(C4CCNCC4)c3)c12 [Compound 9m]
11,250 to 1000,C(#Cc1ccnc2[nH]c3ccccc3c12)CN1CCNCC1 [Compound 9n]
12,≥ 1000,C(=C/c1ccnc2[nH]c3ccccc3c12)/CN1CCNCC1 [Compound 9o]
13,≥ 1000,"c1cc(-c2ccnc3[nH]c4ccccc4c23)cc(-n2ccnc2)c1 [Compound I-2, 4-(3-(1H-imidazol-1-yl)phenyl)-9H-pyrido[2,3-b]indole]"
14,≥ 1000,NCc1cccc(-c2ccnc3[nH]c4ccccc4c23)c1 [Compound I-3]
15,≤ 50,"NCCNc1cccc(-c2ccnc3[nH]c4ccccc4c23)c1 [Compound I-7, N1-(3-(9H-pyrido[2,3-b]indol-4-yl)phenyl)ethane-1,2-diamine]"
16,≤ 50,"NCCOc1cccc(-c2ccnc3[nH]c4ccccc4c23)c1 [Compound I-9, 2-(3-(9H-pyrido[2,3-b]indol-4-yl)phenoxy)ethanamine]"
17,≤ 50,"NCCCOc1cccc(-c2ccnc3[nH]c4ccccc4c23)c1 [Compound I-10, 3-(3-(9H-pyrido[2,3-b]indol-4-yl)phenoxy)propan-1-amine]"
18,≤ 50,"COc1ccc2c(c1)[nH]c1nccc(-c3cccc(NCCN)c3)c12 [Compound I-12, N1-(3-(7-methoxy-9H-pyrido[2,3-b]indol-4-yl)phenyl)ethane-1,2-diamine]"
19,≤ 50,"Cc1ccc2[nH]c3nccc(-c4cccc(NCCN)c4)c3c2c1 [Compound I-13, N1-(3-(6-methyl-9H-pyrido[2,3-b]indol-4-yl)phenyl)ethane-1,2-diamine]"
20,≤ 50,"NCCNc1cccc(-c2ccnc3[nH]c4ccc(Cl)cc4c23)c1 [Compound I-14, N1-(3-(6-chloro-9H-pyrido[2,3-b]indol-4-yl)phenyl)ethane-1,2-diamine]"
